Measurements from US6136825A, “Sulfonamide compounds having 5-HT receptor activity” (Knoll Aktiengesellschaft, priority 1996, dated 2000).

Legend:
5-HT1A = molecular target: T1, 5-HT1A (Rattus norvegicus, UniProt P19327); assay: inhibition of tritiated ligand ([3H]8-OH-DPAT) binding to 5-HT1A receptors, rat hippocampal tissue; parameters: species or system male Charles River CD rats; settings: for inhibition at 1 µM: at 10^-6 M, read-out: % displacement of specific binding, 5-HT1A; for Ki: 25° C., 30 minutes, pH 7.7
T1 construct: Hippocampal tissue from the brains of male Charles River CD rats; from tissue; host or cells: rat hippocampus (male Charles River CD rats), crude membrane pellet
T1 sequence (P19327 1-422): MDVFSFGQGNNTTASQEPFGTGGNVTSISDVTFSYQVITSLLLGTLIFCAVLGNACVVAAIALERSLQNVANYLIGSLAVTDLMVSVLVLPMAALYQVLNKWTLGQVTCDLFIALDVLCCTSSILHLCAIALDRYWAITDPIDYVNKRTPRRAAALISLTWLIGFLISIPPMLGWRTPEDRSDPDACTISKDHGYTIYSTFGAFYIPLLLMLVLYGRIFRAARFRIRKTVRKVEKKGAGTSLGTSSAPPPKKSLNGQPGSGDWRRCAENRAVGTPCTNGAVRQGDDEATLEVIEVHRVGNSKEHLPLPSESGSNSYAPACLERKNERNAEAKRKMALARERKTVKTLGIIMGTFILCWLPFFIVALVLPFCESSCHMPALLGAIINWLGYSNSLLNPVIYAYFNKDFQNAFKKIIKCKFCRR
Experimental: Hippocampal tissue from the brains of male Charles River CD rats weighing between 150-250 g were homogenised in ice-cold 50 mM Tris-HCl buffer (pH 7.7) when measured at 25° C., 1:40 w/v) and centrifuged at 30,000 g at 4° C. for 10 minutes. The pellet was rehomogenised in the same buffer, incubated at 37° C. for 10 minutes and centrifuged at 30,000 g at 4° C. for 10 minutes. The final pellet was resuspended in 50 mM Tris-HCl buffer (pH 7.7) containing 4 mM CaCl2, 0.1% L-ascorbic acid and 10 μM pargyline hydrochloride (equivalent to 6.25 mg wet weight of tissue/ml) and used immediately in the binding assay. Aliquots (400 μl; equivalent to 2.5 mg wet weight of tissue/tube) of this suspension were added to tubes containing the ligand (50 μl; 2 nM) and distilled water (50 μl; total binding) or 5-HT (50 μl; 10 μM; non-specific binding) or test compound (50 μl; at a single concentration of 10^-6 M or at 10 concentrations ranging from 10^-11 -10^-3 M). The ligand was [^3 H]8-hydroxy-2-(dipropylamino)tetralin ([^3 H]8-OH-DPAT) and the mixture was incubated at 25° C. for 30 minutes before the incubation was terminated by rapid filtration.
The filters were washed with ice-cold Tris-HCl buffer and dried. The filters were punched out into vials, scintillation fluid added and radioactivity determined by liquid scintillation counting. The percentage displacement of specific binding of the tritiated ligand was calculated for the single concentration (10^-6 M) of test compound. Displacement curves were then produced for those compounds which displaced ≥50% of specific binding of the tritiated ligand at 10^-6 M using a range of concentrations of the compound. The concentration which gave 50% inhibition of specific binding (IC50) was obtained from the curve. The inhibition coefficient Ki was then calculated using the formula [formula] in which [ligand] is the concentration of the tritiated ligand used and KD Is the equilibrium dissociation constant for the ligand.

[1] = molecular target: T2, D2-like dopamine receptors (Rattus norvegicus, UniProt P61169); assay: inhibition of tritiated (S)-sulpiride binding to D2-like dopamine receptors, rat striatal tissue; parameters: species or system male Charles River CD rats; settings: for Ki: 4° C., 40 minutes, pH 7.7; for inhibition at 1 µM: at 10^-6 M, read-out: % displacement of specific binding, D2-like
T2 construct: Striatal tissue from the brains of male Charles River CD rats; from tissue; host or cells: rat striatum (male Charles River CD rats), crude membrane pellet
Experimental: Striatal tissue from the brains of male Charles River CD rats weighing between 140-250 g were homogenised in ice-cold 50 mM Tris-HCl buffer (pH 7.7 when measured at 25° C.) and centrifuged at 40,000 g for 10 minutes. The pellet was resuspended in Tris salts buffer (50 mM Tris-HCl buffer containing 120 mM NaCl, 5 mM KCl, 2 mM CaCl2 and 1 mM MgCl2 with the addition of 6 mM ascorbic acid; pH 7.7 when measured at 25° C.), and again centrifuged at 40,000 g for 10 minutes. The final pellet was stored at -80° C. Before each test the pellet was resuspended in Tris salts buffer (equivalent to 2 mg wet weight of tissue/ml). Aliquots (720 μl; equivalent to 1.44 mg wet weight of tissue/tube) of this suspension were then added to tubes containing the ligand (40 μl; 1 nM) and Tris salts buffer (40 μl; total binding) or spiroperidol (40 μl; 10 nM; non-specific binding) or test compound (40 μl; at a single concentration of 10^-6 M or at 6 concentrations ranging from 10^-11 -10^-4 M). The ligand was tritiated (S)-sulpiride and the mixture was incubated at 4° C. for 40 minutes before the incubation was terminated by rapid filtration.
The filters were washed with ice-cold Tris-HCl buffer and dried. The filters were punched out in to vials, scintillation fluid added and were left for about 20 hours before being counted by scintillation spectrophotometry. The percentage displacement of specific binding of the tritiated ligand was calculated for the single concentration (10^-6 M) of test compound. Displacement curves were then produced over a range of concentrations for those compounds which displaced ≥50% of specific binding of the tritiated ligand at 10^-6 M. The concentration which gave a 50% inhibition of specific binding (IC50) was obtained from the curve. The inhibition coefficient Ki was then calculated using the formula [formula] in which [ligand] is the concentration of the tritiated ligand used and KD is the equilibrium dissociation constant for the ligand.

T2 sequence (P61169 whole entry): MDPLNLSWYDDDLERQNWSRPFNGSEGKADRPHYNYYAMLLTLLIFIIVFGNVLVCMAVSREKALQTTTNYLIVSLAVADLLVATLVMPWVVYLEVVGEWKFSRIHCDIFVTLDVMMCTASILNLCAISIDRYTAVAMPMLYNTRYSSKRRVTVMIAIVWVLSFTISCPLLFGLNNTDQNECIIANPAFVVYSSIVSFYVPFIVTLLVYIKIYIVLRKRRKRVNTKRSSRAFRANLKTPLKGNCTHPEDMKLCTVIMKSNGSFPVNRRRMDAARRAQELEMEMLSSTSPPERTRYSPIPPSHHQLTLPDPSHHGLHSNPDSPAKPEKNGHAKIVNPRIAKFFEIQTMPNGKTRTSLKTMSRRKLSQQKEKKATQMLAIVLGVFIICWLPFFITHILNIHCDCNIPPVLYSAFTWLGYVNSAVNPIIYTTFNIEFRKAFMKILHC

SMILES	inhibition at 1 µM (5-HT1A) [%]	Ki [1] [nM]	inhibition at 1 µM [1] [%]	Ki (5-HT1A) [nM]
O=S(=O)(NCC1CCN(C[C@H]2COc3ccc(Cl)cc3O2)CC1)c1ccc(C(F)(F)F)cc1 [Example 24, (S)-N-{[1-(7-Chloro-1,4-benzodioxan-2-ylmethyl)-4-piperidyl]methyl}-4-trifluoromethylbenzenesulphonamide]	90	533	–	–
CCN(CC)c1cccc2c(S(=O)(=O)NCC3CCN(C[C@H]4COc5ccc(Cl)cc5O4)CC3)cccc12 [Example 23, (S)-N-{[1-(7-Chloro-1,4-benzodioxan-2-ylmethyl)-4-piperidyl]methyl}-5-(diethylamino)naphthalene-1-sulphonamide]	82	–	83	–
O=S(=O)(NCC1CCN(C[C@H]2COc3ccc(Cl)cc3O2)CC1)c1ccc(F)c(F)c1F [Example 38, (S)-N-{[1-(7-Chloro-1,4-benzodioxan-2-ylmethyl)-4-piperidyl]methyl}-2,3,4-trifluorobenzenesulphonamide]	95	330	–	–
O=S(=O)(NCC1CCN(C[C@H]2COc3ccc(Cl)cc3O2)CC1)c1ccc(I)cc1 [Example 18, (S)-N-{[1-(7-Chloro-1,4-benzodioxan-2-ylmethyl)-4-piperidyl]methyl}-4-iodo-benzenesulphonamide]	90	227	–	–
O=S(=O)(NCC1CCN(C[C@H]2COc3ccc(Cl)cc3O2)CC1)c1cccc2ccccc12 [Example 31, (S)-N-{[1-(7-Chloro-1,4-benzodioxan-2-ylmethyl)-4-piperidyl]methyl}-1-naphthalenesulphonamide]	60	215	–	–
O=S(=O)(NCC1CCN(C[C@H]2COc3ccc(Cl)cc3O2)CC1)c1ccc(F)cc1 [Example 5, (S)-(-)-N-{[1-(7-chloro-1,4-benzodioxan-2-ylmethyl)-4-piperidyl]methyl}-4-fluorobenzene-sulphonamide]	–	69.8	–	37
O=S(=O)(NCC1CCN(C[C@H]2COc3ccc(Cl)cc3O2)CC1)c1ccc2ccccc2c1 [Example 30, (S)-N-{[1-(7-Chloro-1,4-benzodioxan-2-ylmethyl)-4-piperidyl]methyl}-2-naphthalenesulphonamide]	65	241	–	–
COc1ccc(S(=O)(=O)NCC2CCN(C[C@H]3COc4ccc(Cl)cc4O3)CC2)cc1OC [Example 6, (S)-(-)-N-{[1-(7-chloro-1,4-benzodioxan-2-ylmethyl)-4-piperidyl]methyl}-3,4-dimethoxybenzenesulphonamide]	–	40.2	–	20
Cc1c(C)c(C)c(S(=O)(=O)NCC2CCN(C[C@H]3COc4ccc(Cl)cc4O3)CC2)c(C)c1C [Example 22, (S)-N-{[1-(7-Chloro-1,4-benzodioxan-2-ylmethyl)-4-piperidyl]methyl}-2,3,4,5,6-pentamethylbenzenesulphonamide]	59	317	–	–
O=S(=O)(NCC1CCN(C[C@H]2COc3ccc(Cl)cc3O2)CC1)c1ccccc1 [Example 34, (S)-N-{[1-(7-Chloro-1,4-benzodioxan-2-ylmethyl)-4-piperidyl]methyl}benzene-sulphonamide]	87	88	–	–
COc1cc(C)c(S(=O)(=O)NCC2CCN(C[C@H]3COc4ccc(Cl)cc4O3)CC2)c(C)c1C [Example 19, (S)-N-{[1-(7-Chloro-1,4-benzodioxan-2-ylmethyl)-4-piperidyl]methyl}-4-methoxy-2,3,6-trimethylbenzenesulphonamide]	55	306	–	–
O=S(=O)(NCC1CCN(C[C@H]2COc3ccc(Cl)cc3O2)CC1)c1ccc(F)c(Cl)c1 [Example 42, (S)-(-)-3-Chloro-N-{[1-(7-chloro-1,4-benzodioxan-2-ylmethyl)-4-piperidyl]methyl}-4-fluoro-benzenesulphonamide]	80	–	84	–
O=[N+]([O-])c1ccc(S(=O)(=O)NCC2CCN(C[C@H]3COc4ccc(Cl)cc4O3)CC2)c([N+](=O)[O-])c1 [Example 15, (S)-N-{[1-(7-Chloro-1,4-benzodioxan-2-ylmethyl)-4-piperidyl]methyl}-2,4-dinitrobenzenesulphonamide]	82	212	–	–
O=S(=O)(NCC1CCN(C[C@H]2COc3ccc(Cl)cc3O2)CC1)c1ccc(Cl)cc1 [Example 11, (S)-(-)-N-{[1-(7-chloro-1,4-benzodioxan-2-ylmethyl)-4-piperidyl]methyl}-4-chlorobenzene-sulphonamide]	–	157	–	69
COc1ccc(OC)c(S(=O)(=O)NCC2CCN(C[C@H]3COc4ccc(Cl)cc4O3)CC2)c1 [Example 32, (S)-N-{[1-(7-Chloro-1,4-benzodioxan-2-ylmethyl)-4-piperidyl]methyl}-2,5-dimethoxybenzenesulphonamide]	87	285	–	–
O=S(=O)(NCC1CCN(C[C@H]2COc3ccc(Cl)cc3O2)CC1)c1ccccc1Cl [Example 41, (S)-(-)-2-Chloro-N-{[1-(7-chloro-1,4-benzodioxan-2-ylmethyl)-4-piperidyl]methyl}benzenesutphonamide]	93	–	106	–
Cc1cc(C)c(S(=O)(=O)NCC2CCN(C[C@H]3COc4ccc(Cl)cc4O3)CC2)c(C)c1 [Example 21, (S)-N-{[1-(7-Chloro-1,4-benzodioxan-2-ylmethyl)-4-piperidyl]methyl}-2,4,6-trimethylbenzenesulphonamide]	71	249	–	–
O=S(=O)(NCC1CCN(C[C@H]2COc3ccc(Cl)cc3O2)CC1)c1ccc(F)cc1F [Example 7, (S)-(-)-N-{[1-(7-chloro-1,4-benzodioxan-2-ylmethyl)-4-piperidyl]methyl}-2,4-difluorobenzenesulphonamide]	–	37.8	–	35
O=S(=O)(NCC1CCN(C[C@H]2COc3ccc(C(F)(F)F)cc3O2)CC1)c1ccccn1 [Example 12, (S)-(-)-N-J[1-(7-trifluoromethyl-1,4-benzodioxan-2-ylmethyl)-4-piperidyl]methyl,pyridine-2-sulphonamide]	–	28.7	–	30
O=[N+]([O-])c1ccc(S(=O)(=O)NCC2CCN(C[C@H]3COc4ccc(Cl)cc4O3)CC2)cc1 [Example 4, (S)-(-)-N-{[1-(7-chloro-1,4-benzodioxan-2-ylmethyl)-4-piperidyl]-methyl}-4-nitrobenzenesulphonamide]	–	105	–	15
